Literature values as cited in US6673333B1, “Functional MRI agents for cancer imaging” (Research Corporation Technologies, Inc., priority 2000, dated 2004).

What was measured:
[1] = at physiological pH
[2] = thermodynamic stability of the Gd(III) chelate complex

dissociation kinetics [1]	stability constant (K), formation constant, logK [2]	Compound
very slow	28.5	O=C([O-])CN1CCN(CC(=O)[O-])CCN(CC(=O)O)CCN(CC(=O)[O-])CC1.[Gd+3] [Gd-DOTA]
	22.4	O=C([O-])CN(CCN(CC(=O)[O-])CC(=O)[O-])CCN(CC(=O)[O-])CC(=O)[O-].[Gd+3] [Gd(DTPA)^2−]
